These results are taken from patent US8580825B2, “Oxadiazole inhibitors of leukotriene production” (Boehringer Ingelheim International GmbH, priority 2010, dated 2013).

Experiment [1] has as its system synthesis of LTB4 in human whole blood. The experiment can be described thus: human whole blood LTB4 production inhibition assay. In kind it is cell-based. The conditions noted are these: calcimycin stimulated, read-out: hWB LTB4 IC50. The procedure: Compounds are additionally tested in a human whole blood assay to determine their ability to inhibit the synthesis of LTB4 in a cellular system. Compounds are combined with heparinized human whole blood and incubated for 15 minutes at 37° C. Calcimycin (20 μM final, prepared in phosphate-buffered saline, pH 7.4) is then added and the mixture is incubated for another 30 minutes at 37° C. The samples are centrifuged for 5 min at low speed (1500×g) and the plasma layer is removed. Plasma LTB4 concentrations are then measured using an antibody-based homogenous time-resolved fluorescence method (CisBio, Bedford, Mass.).

The target of experiment [2] is T1, recombinant human FLAP protein (Homo sapiens, UniProt P20292).
T1 construct: made in house; host or cells: Sf9 insect cells (100,000xg membrane fraction used)
T1 sequence (P20292 1-161): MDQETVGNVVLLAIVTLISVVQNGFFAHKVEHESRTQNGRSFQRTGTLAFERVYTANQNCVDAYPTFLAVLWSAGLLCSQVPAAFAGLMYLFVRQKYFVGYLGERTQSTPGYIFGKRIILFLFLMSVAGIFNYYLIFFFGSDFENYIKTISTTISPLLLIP
In words: FLAP binding assay (Scintillation Proximity Assay, displacement of [125I]L-691,831). The conditions noted are these: read-out: FLAP SPA IC50. As for the experimental part: Compounds are assessed for the ability to bind to FLAP in a binding assay that measures compound-specific displacement of an iodinated (^125I) FLAP inhibitor via a Scintillation Proximity Assay format (adapted from S. Charleson et al., Mol. Pharmacol., 1992, 41, 873-879).
Cell pellets produced from sf9 insect cells expressing recombinant human FLAP protein are resuspended in buffer A [15 mM Tris-HCl (pH 7.5), 2 mM MgCl2, 0.3 mM EDTA, 1 mM PMSF]. The cells are lysed with a Dounce homogenizer and the material is centrifuged at 10,000×g for 10 minutes. The supernatant is then collected and centrifuged at 100,000×g for 60 minutes. To prepare membrane protein for an assay, an aliquot of the 100,000×g pellet is resuspended in 1 ml of buffer A, Dounce homogenized, and finally subjected to polytron mixing (30 seconds). Membrane protein (25 μl, 5 μg) is mixed with WGA SPA beads (Amersham) and stirred for 1 h. […] (final concentrations: beads, 200 μg/well; protein, 5 μg/well; [^125I] probe, 0.08 nM/well (17 nCi/well). The plates are shaken for 2 h before reading on a Microbeta plate reader. Non-specific binding is determined by the addition of 10 μM cold L-691,831 compound.

The structures appear in SMILES notation.

Regarding `CC(O)Cn1cc(-c2nc(C(C)(c3ccc(-c4cnc(N)nc4)nc3)C(C)C)no2)cn1` (stereo not drawn) [Example 1, 1-[4-(3-{2-[6-(2-aminopyrimidin-5-yl)pyridin-3-yl]-3-methylbutan-2-yl}-1,2,4-oxadiazol-5-yl)-1H-pyrazol-1-yl]propan-2-ol], the IC50 in experiment [1] was 54 nM; in experiment [2], 8.3 nM.
In the same order, the values of `CC(C)C(C)(c1ccc(-c2cnc(N)nc2)nc1)c1noc(-c2cnn(CC(C)(C)O)c2)n1` (stereo not drawn) [Example 2, 1-[4-(3-{2-[6-(2-aminopyrimidin-5-yl)pyridin-3-yl]-3-methylbutan-2-yl}-1,2,4-oxadiazol-5-yl)-1H-pyrazol-1-yl]-2-methylpropan-2-ol] are 74 nM and 10 nM.
Regarding `CC(C)C(C)(c1ccc(-c2cnc(N)nc2)nc1)c1noc(-c2cnn(C)c2)n1` (stereo not drawn) [Example 3, 5-(5-{3-methyl-2-[5-(1-methyl-1H-pyrazol-4-yl)-1,2,4-oxadiazol-3-yl]butan-2-yl}pyridin-2-yl)pyrimidin-2-amine], the IC50 in experiment [1] worked out at 68 nM; in experiment [2], 4.7 nM.
In the same order, the values of `CC(C)[C@](C)(c1ccc(-c2cnc(N)nc2)nc1)c1noc(-c2cnn(C)c2)n1` [Example 4, 5-(5-{(2R)-3-methyl-2-[5-(1-methyl-1H-pyrazol-4-yl)-1,2,4-oxadiazol-3-yl]butan-2-yl}pyridin-2-yl)pyrimidin-2-amine] are 20 nM and 3 nM.
In the same order, the values of `CC(C)[C@@](C)(c1ccc(-c2cnc(N)nc2)nc1)c1noc(-c2cnn(C)c2)n1` [Example 5, 5-(5-{(2S)-3-methyl-2-[5-(1-methyl-1H-pyrazol-4-yl)-1,2,4-oxadiazol-3-yl]butan-2-yl}pyridin-2-yl)pyrimidin-2-amine] are 750 nM and 76.2 nM.
For the molecule `CC(C)C(C)(c1ccc(-c2cnc(N)nc2)nc1)c1noc(-c2cnn(C(C)(C)CO)c2)n1` (stereo not drawn) [Example 6, 2-[4-(3-{2-[6-(2-aminopyrimidin-5-yl)pyridin-3-yl]-3-methylbutan-2-yl}-1,2,4-oxadiazol-5-yl)-1H-pyrazol-1-yl]-2-methylpropan-1-ol], the half-maximal inhibitory concentration (IC50) in experiment [1] is 220 nM; in experiment [2], 8.6 nM.
The matching figures for `CC(C)C(C)(c1ccc(-c2cnc(N)nc2)nc1)c1noc(-c2cnn(CC(=O)N(C)C)c2)n1` (stereo not drawn) [Example 7, 2-[4-(3-{2-[6-(2-aminopyrimidin-5-yl)pyridin-3-yl]-3-methylbutan-2-yl}-1,2,4-oxadiazol-5-yl)-1H-pyrazol-1-yl]-N,N-dimethylacetamide]: 180 nM and 14.4 nM.
On to `CC(C)(O)Cn1cc(-c2nc(C(C)(c3ccc(-c4cnc(N)nc4)nc3)C3CC3)no2)cn1` (stereo not drawn) [Example 66, 1-[4-(3-{1-[6-(2-aminopyrimidin-5-yl)pyridin-3-yl]-1-cyclopropylethyl}-1,2,4-oxadiazol-5-yl)-1H-pyrazol-1-yl]-2-methylpropan-2-ol], for which the IC50 in experiment [1] is 52 nM.
Still for that read-out and setting: the same measure for `CC(C)(O)Cn1cc(-c2nc([C@@](C)(c3ccc(-c4cnc(N)nc4)nc3)C3CC3)no2)cn1` [Example 81, 1-[4-(3-{(1R)-1-[6-(2-aminopyrimidin-5-yl)pyridin-3-yl]-1-cyclopropylethyl}-1,2,4-oxadiazol-5-yl)-1H-pyrazol-1-yl]-2-methylpropan-2-ol]: 41 nM; for `CC(C)(O)Cn1cc(-c2nc([C@](C)(c3ccc(-c4cnc(N)nc4)nc3)C3CC3)no2)cn1` [Example 82, 1-[4-(3-{(1S)-1-[6-(2-aminopyrimidin-5-yl)pyridin-3-yl]-1-cyclopropylethyl}-1,2,4-oxadiazol-5-yl)-1H-pyrazol-1-yl]-2-methylpropan-2-ol]: 1200 nM.
With `CC(C)(O)Cn1cc(-c2nc([C@@](C)(c3ccc(-c4cnc(N)c(C#N)c4)nc3)C3CC3)no2)cn1` [Example 162, 6′-Amino-5-((R)-1-cyclopropyl-1-{5-[1-(2-hydroxy-2-methyl-propyl)-1H-pyrazol-4-yl]-[1,2,4]oxadiazol-3-yl}-ethyl)-[2,3′]bipyridinyl-5′-carbonitrile], in experiment [1], the half-inhibitory concentration (IC50) was found to be 319 nM.
`CC(C)(O)Cn1cc(-c2nc([C@@](C)(c3ccc(-c4cnc5c(c4)OCCN5)nc3)C3CC3)no2)cn1` [Example 167, 1-[4-(3-{(R)-1-Cyclopropyl-1-[6-(3,4-dihydro-2H-pyrido[3,2-b][1,4]oxazin-7-yl)-pyridin-3-yl]-ethyl}-[1,2,4]oxadiazol-5-yl)-pyrazol-1-yl]-2-methyl-propan-2-ol]: the IC50 in experiment [1] was 171 nM.
Take `CC(C)(O)Cn1cc(-c2nc([C@@](C)(c3ccc(-c4cnc5[nH]ccc5n4)nc3)C3CC3)no2)cn1` [Example 168, 1-[4-(3-{(R)-1-Cyclopropyl-1-[6-(5H-pyrrolo[2,3-b]pyrazin-2-yl)-pyridin-3-yl]-ethyl}-[1,2,4]oxadiazol-5-yl)-pyrazol-1-yl]-2-methyl-propan-2-ol]: the IC50 in experiment [1] was determined as 63 nM.
Same read-out and setting: the result for `CNc1ncc(-c2ccc([C@](C)(c3noc(-c4cnn(C5CCOCC5)c4)n3)C3CC3)cn2)cn1` [Example 169, {5-[5-((R)-1-Cyclopropyl-1-{5-[1-(tetrahydro-pyran-4-yl)-1H-pyrazol-4-yl]-[1,2,4]oxadiazol-3-yl}-ethyl)-pyridin-2-yl]-pyrimidin-2-yl}-methyl-amine] reads 105 nM; that for `CNc1cnc(-c2ccc([C@](C)(c3noc(-c4cnn(C)c4)n3)C3CC3)cn2)cn1` [Example 170, [5-(5-{(R)-1-Cyclopropyl-1-[5-(1-methyl-1H-pyrazol-4-yl)-[1,2,4]oxadiazol-3-yl]-ethyl}-pyridin-2-yl)-pyrazin-2-yl]-methyl-amine], 112 nM; that for `C[C@@](c1ccc(-c2cnc(N)nc2)nc1)(c1noc(-c2cnn(C3CCOCC3)c2)n1)C1CC1` [Example 171, 5-[5-((R)-1-Cyclopropyl-1-{5-[1-(tetrahydro-pyran-4-yl)-1H-pyrazol-4-yl]-[1,2,4]oxadiazol-3-yl}ethyl)-pyridin-2-yl]-pyrimidin-2-ylamine], 119 nM.
As for `CNc1ncc(-c2ccc([C@](C)(c3noc(-c4cnn(C)c4)n3)C3CC3)cn2)cn1` [Example 172, [5-(5-{(R)-1-Cyclopropyl-1-[5-(1-methyl-1H-pyrazol-4-yl)-[1,2,4]oxadiazol-3-yl]ethyl}-pyridin-2-yl)-pyrimidin-2-yl]-methyl-amine], the IC50 in experiment [1] stood at 104 nM.
On the same count and under the same terms, the same measure for `CNc1cnc(-c2ccc([C@](C)(c3noc(-c4cnn(C5CCOCC5)c4)n3)C3CC3)cn2)cn1` [Example 173, {5-[5-((R)-1-Cyclopropyl-1-{5-[1-(tetrahydro-pyran-4-yl)-1H-pyrazol-4-yl]-[1,2,4]oxadiazol-3-yl}-ethyl)-pyridin-2-yl]-pyrazin-2-yl}-methyl-amine]: 221 nM; for `C[C@@](c1ccc(-c2cnc(N)cn2)nc1)(c1noc(-c2cnn(C3CCOCC3)c2)n1)C1CC1` [Example 174]: 53 nM; for `CNc1ncc(-c2ccc([C@](C)(c3noc(-c4cnn(CC(=O)N(C)C)c4)n3)C3CC3)cn2)cn1` [Example 176, 2-[4-(3-{(R)-1-Cyclopropyl-1-[6-(2-methylamino-pyrimidin-5-yl)-pyridin-3-yl]-ethyl}-[1,2,4]oxadiazol-5-yl)-pyrazol-1-yl]-N,N-dimethyl-acetamide]: 267 nM.
